# Assay results published in US20150051138A1, “INHIBITORS OF FURIN AND OTHER PRO-PROTEIN CONVERTASES” (Sanford-Burnham Medical Research Institute, priority 2012, published 2015).
# Target: T1, Furin (Homo sapiens, UniProt P09958)
# T1 construct: Purification of Soluble Furin; inferred from purification by Ni2+-chelating chromatography and imidazole elution; made in house; host or cells: MDCK cells (furin-overexpressing), secreted into culture medium
# Test: Furin enzymatic assay, IC50 determination with Pyr-RTKR-AMC substrate
# Assay type: biochemical
# Details: furin 50 nM, Pyr-RTKR-AMC 25 μM, 30 min preincubation; read-out: IC50 against Furin
# Method: Furin-overexpressing MDCK cells were grown using 15 cm plates (Falcon) in DMEM/High modified synthetic media (Thermo Scientific) supplemented with Gentamicin (10 μg/ml). Each two days the medium was collected. Cells were replenished with fresh medium. To remove cell debris, the collected samples were spun at 3000×g and the supernatant fraction was filtered through a 0.22 μm filter (Corning) and then 100-fold concentrated using a Pellicon XL Biomax 10 concentrator (Millipore). Furin was isolated from the concentrated medium samples using Ni^2+-chelating chromatography on a HiTrap Chelating HP 1.6×2.5 cm column (Amersham Biosciences) equilibrated with 20 mM Tris-HCl buffer, pH 8.0, containing 1M NaCl. To remove the impurities, the column was washed with 50 ml of the same buffer containing 25 mM imidazole. Furin was eluted using 500 mM imidazole. The purified fractions were pooled, concentrated using an Amicon Ultra 50K-cutoff membrane (Millipore), dialyzed against PBS and stored at −80° C. According to SDS-PAGE followed by Coomassie staining of the gel, Western blotting and enzyme activity assays the purity of the isolated furin samples was >95%. The typical yield of purified furin was 0.8-1 mg/liter of cell culture medium. Specific activity of purified furin was >120 units where one unit is the amount of furin that will cleave 1.0 pmol methyl-coumaryl-7-amide (AMC) from the Pyr-Arg-Thr-Lys-Arg-methyl-coumaryl-7-amide (Pyr-RTKR-AMC) substrate per min at ambient temperature, pH 7.5.
# Furin activity was measured in triplicate in wells of a 96-well plate in 0.2 ml 50 mM HEPES, pH 7.5, containing 1 mM CaCl2, 0.005% Brij-35 and 20% glycerol. Pyr-RTKR-AMC (25 μM) was used as a substrate. The concentration of furin in the reactions was 50 nM. The steady-state rate of substrate hydrolysis was monitored continuously (λex=360 nm and λem=465 nm) at 37° C. using a Spectramax Gemini EM fluorescent spectrophotometer (Molecular Devices).
# Furin (50 nM) was preincubated for 30 min at 20° C. with increasing concentrations of the individual compounds in 0.1 ml of 50 mM HEPES, pH 7.5, containing 1 mM CaCl2, 20% glycerol and 0.005% Brij 35. The Pyr-RTKR-AMC substrate ([…]) was added in 0.1 ml of the same buffer. Reaction velocity was monitored continuously at λex=360 nm and λem=465 nm on a Spectramax Gemini EM fluorescence spectrophotometer. All assays were performed in triplicate in wells of a 96-well plate. IC50 values were calculated by determining the concentrations of the compounds needed to inhibit 50% of the furin activity against Pyr-RTKR-AMC substrate. GraphPad Prism was used as fitting software.
# T1 sequence (P09958 108-715 limits assumed): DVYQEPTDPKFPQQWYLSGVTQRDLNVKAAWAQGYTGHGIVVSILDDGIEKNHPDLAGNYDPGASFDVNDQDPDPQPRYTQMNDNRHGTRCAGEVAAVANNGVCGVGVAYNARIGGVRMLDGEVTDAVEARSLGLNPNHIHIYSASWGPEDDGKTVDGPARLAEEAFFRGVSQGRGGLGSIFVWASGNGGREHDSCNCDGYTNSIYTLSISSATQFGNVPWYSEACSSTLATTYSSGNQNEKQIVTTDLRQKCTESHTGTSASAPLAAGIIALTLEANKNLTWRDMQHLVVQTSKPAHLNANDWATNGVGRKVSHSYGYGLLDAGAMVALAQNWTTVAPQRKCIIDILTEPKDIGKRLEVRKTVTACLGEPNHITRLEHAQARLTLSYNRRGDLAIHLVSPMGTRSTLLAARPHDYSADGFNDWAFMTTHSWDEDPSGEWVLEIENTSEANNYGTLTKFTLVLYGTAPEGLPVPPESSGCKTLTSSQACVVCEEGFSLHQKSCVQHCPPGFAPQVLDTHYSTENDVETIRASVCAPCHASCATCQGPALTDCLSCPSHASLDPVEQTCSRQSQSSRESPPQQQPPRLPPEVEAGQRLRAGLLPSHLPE
row,Structure (SMILES),IC50 [nM]
1,CC(=O)N[C@@H](CCCNC(=N)N)C(=O)N[C@H](C(=O)N[C@@H](Cc1ccc(N=C(N)N)cc1)C(=O)NCc1ccc(C(=N)N)cc1)C(C)C [Compound A],7
2,CC(=O)N[C@@H](CCCNC(=N)N)C(=O)N[C@H](C(=O)N[C@@H](Cc1ccc(N=C(N)N)cc1)C(=O)NCc1ccc(C(=N)N)cc1F)C(C)C [Compound C],9

# Results, then the molecule that gave them:
row,IC50 [nM],Structure (SMILES)
1,1200,CC(=O)N[C@@H](CCCNC(=N)N)C(=O)N[C@H](C(=O)N[C@@H](Cc1ccc(N=C(N)N)cc1)C(=O)NCc1ccc(/C(N)=N/O)cc1)C(C)C [Compound D]
2,300,CC(C)[C@H](NS(=O)(=O)Cc1ccc(C(=N)N)cc1)C(=O)N[C@@H](CCCNC(=N)N)C(=O)NCc1ccc(C(=N)N)cc1 [Compound E]
3,3.7,CC(=O)N[C@@H](CCCNC(=N)N)C(=O)N[C@H](C(=O)N[C@@H](Cc1ccc(N=C(N)N)cc1)C(=O)NCc1ccc(C(=N)N)c(F)c1)C(C)C [Compound B]

# Tested on: Dengue
# Test: Dengue viral replication assay, secondary CPE/virus yield reduction (VYR)
# Assay type: cell-based
# Details: read-out: cellular activity against Dengue (EC90)
# Method: Primary cytopathic effect (CPE) reduction assay. Four-concentration CPE inhibition assays are performed. Confluent or near-confluent cell culture monolayers in 96-well disposable microplates are prepared. Cells are maintained in MEM or DMEM supplemented with FBS as required for each cell line. For antiviral assays the same medium is used but with FBS reduced to 2% or less and supplemented with 50 μg/ml gentamicin. The test compound is prepared at four log 10 final concentrations, usually 0.1, 1.0, 10, and 100 μg/ml or μM. The virus control and cell control wells are on every microplate. In parallel, a known active drug is tested as a positive control drug using the same method as is applied for test compounds. The positive control is tested with each test run. The assay is set up by first removing growth media from the 96-well plates of cells. Then the test compound is applied in 0.1 ml volume to wells at 2× concentration. […] The dye content in each well is quantified using a 96-well spectrophotometer at 540 nm wavelength. […]
# Secondary CPE/Virus yield reduction (VYR) assay. […] The incorporated dye content is quantified as described above. […] Compounds observed to be active above are further evaluated by VYR assay. […] Wells are scored for presence or absence of virus after distinct CPE (measured by neutral red uptake) is observed. […]
row,Structure (SMILES),EC90 [nM]
1,CC(=O)N[C@@H](CCCNC(=N)N)C(=O)N[C@H](C(=O)N[C@@H](Cc1ccc(N=C(N)N)cc1)C(=O)NCc1ccc(C(=N)N)cc1)C(C)C [Compound A],14000
